{"source": "patent US11851681B2", "about": "“Cell preparation method” (KYOTO PREFECTURAL PUBLIC UNIVERSITY CORPORATION, priority 2015, dated 2023)", "key": {"[1]": {"test_system": "human dermal fibroblasts; HDFs", "experiment": "Alizarin Red S staining (staining figure), fibroblast to osteoblast, Example 1", "type": "cell-based", "settings": "each compound 2 μM in calcification induction medium; day 24; FIG. 1", "description": "It was washed 3 times with sterile distilled water. […] The well after staining was washed with sterile distilled water and photographed.\nThe concentrations of the compounds are as follows: • D4476: 2 μM • ALK5 inhibitor II: 2 μM • SB431542: 2 μM."}, "[2]": {"test_system": "human adipose derived stem cells; ADSC", "settings": "calcification induction medium added with ALK5 inhibitor II; day 19; FIG. 5", "description": "(§1) The calcification induction medium is 10% FBS DMEM added with 50 μg/ml ascorbic acid, 10 mM β-glycerophosphate and 100 nM Dexamethasone. The culture medium was exchanged with a fresh one every 3-4 days, and culturing was performed until day 19.\n(§2) On day 19, the culture medium was removed from each well by suction, washed with PBS(−), and fixed with 10% formalin. It was washed 3 times with sterile distilled water. Thereafter, Alizarin Red S staining solution was added, and the mixture was incubated at room temperature for 15 min."}, "[3]": {"test_system": "human dermal fibroblasts; HDFs", "settings": "calcification induction medium added with ALK5 inhibitor II; day 19; FIG. 5", "description": "as §1, §2"}, "[4]": {"test_system": "human dermal fibroblasts; HDFs", "experiment": "Oil Red O staining, fibroblast to brown adipocyte, Example 12", "type": "cell-based", "settings": "compound 2 μM in addition to T3 1 nM and Rosiglitazone 1 μM, adipocyte induction medium; day 14; FIG. 12", "description": "The concentrations of the additives are as follows: • T3: 1 nM • Rosiglitazone: 1 μM • D4476: 2 μM • Pifithrin alpha [p53 inhibitor]: 5 μM • SB431542: 2 μM • ALK5 Inhibitor II: 2 μM.\nThen, the cells were washed with sterile distilled water and photographed with a phase contrast microscope at ×100 magnification."}, "[5]": {"test_system": "Human normal skin-derived fibroblasts (HDFs)", "settings": "FIG. 42", "description": "Human normal skin-derived fibroblasts (HDFs) were suspended in a general medium (DMEM added with 10% FBS). […] An adipocyte induction medium was added to group 2 at 1 mL/well. An adipocyte induction medium added with ALK5 inhibitor II at a concentration of 4 μM was added to groups 3-8 at 1 mL/well.\nThe adipocyte induction medium is DMEM added with 1 nM T3, 1 μM Rosiglitazone, 0.5 mM 3-isobutyl-1-methylxanthine (IBMX), 0.5 μM dexamethasone, 1 μg/mL Insulin and 10% FBS. Once every 2 days, the culture medium was exchanged with a fresh one. In groups 3-7, as described in the Figure, the cells were cultured in an adipocyte induction medium added with ALK5 inhibitor II only in the period of days 0-2, 0-4, 0-6, 0-8, 0-10, and thereafter cultured in an adipocyte induction medium free of ALK5 inhibitor II. On day 14, the culture medium was removed by suction from each well, and washed with PBS(−). After fixing with 4% para-formaldehyde, the well was washed with PBS (−), Permanent wave Buffer (0.2% Triton-X-added PBS) was added and the well was incubated for 15 min. After washing 3 times with PBS(−), Blocking One was added, and the mixture was incubated at room temperature for 60 min. Anti-UCP-1 antibody (RD MAB6158) was added and the mixture was reacted for 2 hrs at room temperature, and washed 3 times with Wash buffer. CF488-conjugated anti-mouse Ig antibody (Biotum 20014) was added and the mixture was reacted for 2 hrs at room temperature, and washed 3 times with PBS(−). After nuclear staining with SlowFade Gold antifade reagent with DAPI manufactured by Lifetechnology, the cells were photographed with a fluorescence microscope at ×100 magnification."}, "[6]": {"test_system": "Human normal skin-derived fibroblasts (HDFs)", "experiment": "Real-time RT-PCR of UCP1, four inhibitors, Example 39", "type": "cell-based", "description": "The addition concentration of the compound was 4 μM, 8 μM, 12 μM or 16 μM. […] Thereafter, in Day 9-Day 14, culturing was performed in a medium free of ALK5 inhibitor II, LY2157299, SB431542, D4476."}, "[7]": {"test_system": "human dermal fibroblasts; HDFs", "settings": "4 μM in calcification induction medium; day 18; FIG. 20", "experimental": "The calcification induction medium is a 10% FBS DMEM added with 50 μg/ml ascorbic acid, 10 mM β-glycerophosphate and 100 nM Dexamethasone. The culture medium was exchanged with a fresh one every 3-4 days, and culturing was performed until day 18. On day 18, the culture medium was removed from each well by suction, washed with PBS(−), and fixed with 10% formalin. It was washed 3 times with sterile distilled water. The well after staining with Alizarin Red S was washed with sterile distilled water, and photographed with an inverted microscope at ×40 magnification."}, "[8]": {"test_system": "human peripheral blood mononuclear cells; PBMCs", "settings": "P-adipocyte induction medium, 4 μM; day 14; FIG. 57", "experimental": "Human normal peripheral blood mononuclear cells (human peripheral blood mononuclear cells; PBMCs) were suspended in Control medium (RPMI1640 medium added with 10% FBS). […] P-adipocyte induction medium (adipocyte induction medium for peripheral blood mononuclear cell) was added to group 2 at 1 mL/well. P-adipocyte induction medium added with ALK5 inhibitor II at a concentration of 4 μM was added to group 3 at 1 mL/well. The P-adipocyte induction medium is RPMI1640 medium added with 10% FBS, 30 U/ml recombinant hIL-2, 1 nM T3, 1 μM Rosiglitazone, 0.5 mM 3-isobutyl-1-methylxanthine (IBMX), 0.5 μM dexamethasone and 1 μg/mL Insulin. Once every 2 days, 50% of the culture medium was exchanged with a fresh one.\nOn day 14, the culture medium was removed by suction from each well, washed with PBS(−) and total RNA was extracted from the cells by using RNA easy Mini Kit manufactured by Qiagen. cDNA was synthesized from the RNA by using Rever Tra Ace qPCR RT Master Mix. This cDNA was admixed with Real-time PCR Master Mix, primers specific to FABP4 gene or β actin gene and Taqman probe. qRT-PCR was performed using AB7300 Real-time PCR system. The mRNA level of FABP4 gene was quantified as a ratio to 3-actin gene mRNA level, and calculated with the value of human normal peripheral blood mononuclear cell cultured in the general medium as 1."}}, "note": "Entries after “also recorded” stand apart in the source; their conditions may differ.", "data": [{"compound": "Cc1cccc(-c2n[nH]cc2-c2ccc3ncccc3n2)n1", "note": "[ALK5 inhibitor II, 2-(3-(6-Methylpyridin-2-yl)-1H-pyrazol-4-yl)-1,5-naphthyridine]", "values": [{"measurement": "conversion of human fibroblast to osteoblast, Alizarin Red S staining (staining figure)", "setting": "[1]", "value": "converted to osteoblast having calcified is bone matrix production ability; also recorded: most efficiently converts fibroblast to osteoblast"}, {"measurement": "conversion to osteoblast, Alizarin Red S staining and OD550, fat-derived mesenchymal stem cell", "setting": "[2]", "value": "converted to osteoblast having calcified bone matrix production ability"}, {"measurement": "conversion to osteoblast, Alizarin Red S staining and OD550, human fibroblast", "setting": "[3]", "value": "converted to osteoblast having calcified bone matrix production ability"}, {"measurement": "conversion of fibroblast to brown adipocyte, Oil Red O staining", "setting": "[4]", "value": "converted fibroblast to brown adipocyte"}, {"measurement": "conversion of fibroblast to brown adipocyte, UCP1 protein, exposure 0-8 days", "setting": "[5]; 4 μM for 0-8 days, thereafter medium free of ALK5 inhibitor II", "value": "can be more strongly induced"}, {"measurement": "staining with anti-UCP1 antibody, groups 3-8", "setting": "[5]; 4 μM in adipocyte induction medium, days 0-2 to 0-10 or throughout, day 14", "value": "many cells were stained with anti-UCP1 antibody"}, {"measurement": "conversion of fibroblast to brown adipocyte, UCP1 protein", "setting": "[5]; 4 μM in adipocyte induction medium, day 14", "value": "converted fibroblast to brown adipocyte is highly expressing UCP1 protein"}, {"measurement": "staining with anti-UCP1 antibody, group 6", "setting": "[5]; 4 μM only in days 0-8, day 14", "value": "the density of the cells stained with anti-UCP1 antibody was the highest"}, {"measurement": "conversion of fibroblast to brown adipocyte, UCP1 mRNA", "setting": "[6]; 4 μM, 8 μM, 12 μM or 16 μM in adipocyte induction medium Day 1 to Day 8, then compound-free to day 14, FIG. 43", "value": "converted fibroblast to brown adipocyte strongly expressing UCP1 gene; also recorded: most strongly induced"}, {"measurement": "efficiency in converting fibroblast to brown adipocyte (summary statement)", "setting": "[6]; description, conditions not given", "value": "highly efficient in converting fibroblast to brown adipocyte"}, {"measurement": "conversion of fibroblast to osteoblast, Alizarin Red S staining", "setting": "[7]", "value": "converted human skin-derived fibroblast to osteoblast that produces a large amount of calcified bone matrix"}, {"measurement": "conversion of peripheral blood mononuclear cell to white adipocyte, FABP4 mRNA", "setting": "[8]", "value": "converts human normal peripheral blood mononuclear cell to white adipocyte expressing FABP4 gene"}]}]}
